Legend:
[1] = cited from earlier work
[2] = target: T1, 5-HT3 receptors expressed in guinea pig ileum (Cavia porcellus, UniProt O70212); assay: guinea pig ileum contractions induced by serotonin; assay type: biochemical; conditions: for type of antagonism at 5-HT3 receptors: from depression of serotonin maximum; for Kd: functional affinity, double-reciprocal plot, read-out: 5-HT3 receptor pK B ± S.E.M (converted)
T1 construct: A segment (15 cm) of male guinea pig ileum was excised from the small intestine; from tissue; host or cells: isolated male guinea pig ileum segments in an organ bath
T1 sequence (O70212 20-490): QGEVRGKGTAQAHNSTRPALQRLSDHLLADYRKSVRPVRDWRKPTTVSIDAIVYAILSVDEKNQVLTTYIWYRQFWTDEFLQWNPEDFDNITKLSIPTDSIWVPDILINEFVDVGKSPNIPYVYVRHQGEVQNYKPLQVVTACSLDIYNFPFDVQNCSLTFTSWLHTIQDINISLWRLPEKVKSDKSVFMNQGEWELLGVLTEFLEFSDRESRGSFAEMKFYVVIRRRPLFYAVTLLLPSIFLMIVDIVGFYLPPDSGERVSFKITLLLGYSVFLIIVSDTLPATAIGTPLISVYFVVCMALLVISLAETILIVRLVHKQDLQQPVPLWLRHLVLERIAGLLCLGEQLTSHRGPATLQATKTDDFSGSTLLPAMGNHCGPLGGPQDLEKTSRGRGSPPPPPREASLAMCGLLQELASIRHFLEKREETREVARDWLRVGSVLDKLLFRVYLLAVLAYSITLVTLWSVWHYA

[3] = cited from earlier work; remark: listed apart in the source
[4] = target: serotonergic 5-HT2A receptors; design: method as in PMID 26554929; conditions: read-out: affinity for serotonergic 5-HT2A receptors, Ki; cited from earlier work
[5] = design: method as in unpublished results; conditions: ref unpublished results; cited from earlier work
[6] = target: dopaminergic D2 receptors; design: method as in PMID 26554929; conditions: read-out: affinity for dopaminergic D2 receptors, Ki; cited from earlier work
[7] = test system: mice; conditions: scopolamine-induced deficits; cited from earlier work
[8] = target: 5-HT2A receptors; design: method as in unpublished results; conditions: not measured here; ref unpublished results; read-out: 5-HT2A receptor antagonism IC50; cited from earlier work
[9] = target: D2 receptors; design: method as in unpublished results; conditions: not measured here; ref unpublished results; read-out: D2 receptor antagonism IC50; cited from earlier work

For `COc1ccccc1N1CCN(CCOCCOc2c(C)cccc2C)CC1.Cl` [HBK-14, 1-[(2,6-Dimethylphenoxy)ethoxyethyl]-4-(2-methoxyphenyl)piperazine hydrochloride], the cholinolytic activity [1] is given as “negligible”, the “type of antagonism at 5-HT3 receptors” value [2] is given as “non-competitive antagonism” and the Kd [2] is given as 11.2 nM. For the same compound, the antihistaminic activity [3] was “negligible”.

In the case of `COc1ccccc1N1CCN(CCOCCOc2c(C)cccc2Cl)CC1.Cl` [HBK-15, 1-[(2-chloro-6-methylphenoxy)ethoxyethyl]-4-(2-methoxyphenyl)piperazine hydrochloride], the Ki [4] is given as 109 nM, the “antipsychotic-like or cataleptogenic properties” value [5] is given as “did not show antipsychotic-like or cataleptogenic properties” and the Ki [6] is given as 54 nM. The effect on memory [7] was “showed memory-enhancing properties”, the cholinolytic activity [1] was “negligible” and the “type of antagonism at 5-HT3 receptors” value [2] was “non-competitive interaction with 5-HT3 receptors”. The Kd [2] was 43.6 nM, the antihistaminic activity [3] was “negligible” and the IC50 [8] was 4460 nM. The IC50 [9] was 68 nM.

Reference: article PMC5884906, “Single Administration of HBK-15—a Triple 5-HT1A, 5-HT7, and 5-HT3 Receptor Antagonist—Reverses Depressive-Like Behaviors in Mouse Model of Depression Induced by Corticosterone” (Molecular Neurobiology, 2017)
